Patent US9809623B2, “α4β7 peptide monomer and dimer antagonists” (Protagonist Therapeutics, Inc., priority 2014, dated 2017)
pIC50: −log10 of the molar value. Read-outs that look alike come from different tables or passages of the source. Numbered stars: 1 amine (or outer) side, 2 acyl side, 3 side chain; on linkers, the order of the positions; unused ones are H or OH. Bridge positions count the residues as written; N and C are the ends. Square brackets hold non-standard residues; d marks the D form. Peptide text beside a SMILES is read from it. I, II: the chains in the order shown. Phe(3-CONH2) = NC(=O)c1cccc(C[C@H](N)C(=O)O)c1; Phe(2,4-Cl2) = N[C@@H](Cc1ccc(Cl)cc1Cl)C(=O)O; Phe(4-F) = N[C@@H](Cc1ccc(F)cc1)C(=O)O; 1Nal = N[C@@H](Cc1cccc2ccccc12)C(=O)O; 2Nal = N[C@@H](Cc1ccc2ccccc2c1)C(=O)O; d1Nal = N[C@H](Cc1cccc2ccccc12)C(=O)O; d2Nal = N[C@H](Cc1ccc2ccccc2c1)C(=O)O; Diglycolyl = O=C(COCC(=O)[*:2])[*:1]; NMeR = CN[C@@H](CCCNC(=N)N)C(=O)O; hPhe = N[C@@H](CCc1ccccc1)C(=O)O; Pen = CC(C)(S)[C@H](N)C(=O)O; dNMeK = CN[C@H](CCCCN)C(=O)O

Assays:
rh integrin α4β7 = biological target: T1, rh integrin α4β7 (Homo sapiens, UniProt P13612+P26010); experiment: α4β7-MAdCAM Competition ELISA; type: binding; details: Table 3-B, Potency (α4β7); range classes; read-out: α4β7 ELISA IC50
T1 construct: purchased R&D Systems 5397-A30
Protocol: A nickel coated plate (Pierce #15442) was coated with rh integrin α4β7 (R&D Systems #5397-A30) at 800 ng/well and incubated at room temperature with shaking for 1 hr. The solution was then removed by shaking and blocked with assay buffer (50 mM Tris-HCl pH7.6, 150 mM NaCl, 1 mM MnCl2 or MgCl2, 0.05% Tween-20 and 0.5% BSA) at 250 ul/well. The plate was then incubated at room temperature for 1 hr. Each well was washed 3 times with wash buffer (50 mM Tris-HCl pH7.6, 100 mM NaCl, 1 mM MnCl2 or MgCl2, 0.05% Tween-20). To each well was added 25 ul of a serial dilution (3-fold dilutions in assay buffer) of peptide starting at 20 μM. 25 ul of recombinant human MAdCAM-1 (R&D Systems #6056-MC) was then added to each well at a fixed concentration 20 nM. The final starting peptide concentration was 10 μM, and the final MAdCAM-1 concentration was 10 nM. The plates were then incubated at room temperature for 1 hr to reach binding equilibrium. The wells were then washed three times with wash buffer. 50 ul of mouse anti-human IgG1-HRP (Invitrogen # A10648) diluted in 1:2000 in assay buffer was then added to each well. The wells were incubated at room temperature for 45 min with shaking. The wells were then washed 3 times with wash buffer. 100 ul of 3,3′,5,5′-Tetramethylbenzidine (TMB) were then added to each well and closely observe during development time. The reaction was stopped with 2N H2SO4 and absorbance was read at 450 nm.
TMB is a chromogenic substrate suitable for use in ELISA procedures, which utilize horseradish peroxidase conjugates. This substrate produces a soluble end product that is blue in color and can be read spectrophotometrically at 370 or 655 nm. The reaction maybe stopped with 2 M H2S04, resulting in a yellow solution that is read at 450 nm. Each tablet contains 1 mg of TMB substrate. To prepare TMB Substrate Solution, dissolve one 3,3′,5,5′-tetramethylbenzidine tablet in 1 ml of DMSO and add to 9 ml of 0.05 M Phosphate-Citrate Buffer, pH 5.0. Add 2 μl of fresh 30% hydrogen peroxide (Product No. H 1009) per 10 ml of substrate buffer solution, immediately prior to use.

[1] = Simulated Intestinal Fluid (SIF) Stability Assay; type: in vitro ADME, porcine; details: pig, pH 6.5, Table 3-B
How it was run: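 Intestinal stability: percent peptide remaining over time, by LC-MS/MS peak-area ratio to internal standard, fitted to first-order decay for half-life. Conditions: 22 μM peptide, 1% pancreatin in pH 6.5 blank FASSIF, 37 °C.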

α4β7 = α4β7 (Homo sapiens, UniProt P13612+P26010); experiment: α4β7-MAdCAM Cell Adhesion Assay (RPMI 8866 human cells); type: cell-based; set-up: host or cells: RPMI 8866 human B lymphoblastoid cells; details: Table 3-B, Potency (α4β7); range classes; read-out: α4β7 cell (Hu) IC50
How it was run: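 Adhesion read-out: MTT absorbance at 570 nm minus no-cell wells, after three washes. Plates coated with rh MAdCAM-1/Fc received peptide dilutions plus 200,000 RPMI 8866 cells in Mn2+ (1 mM)-supplemented DMEM, 0.1% BSA, HEPES pH 7, incubated 30-45 min, 37 °C.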

[2] = simulated intestinal fluid (SIF) with 1% porcine pancreatin, > means experiment was stopped at that time and half life was not reached, read-out: Stabilty SIF t1/2

T1 sequence (P13612 34-977 limits assumed): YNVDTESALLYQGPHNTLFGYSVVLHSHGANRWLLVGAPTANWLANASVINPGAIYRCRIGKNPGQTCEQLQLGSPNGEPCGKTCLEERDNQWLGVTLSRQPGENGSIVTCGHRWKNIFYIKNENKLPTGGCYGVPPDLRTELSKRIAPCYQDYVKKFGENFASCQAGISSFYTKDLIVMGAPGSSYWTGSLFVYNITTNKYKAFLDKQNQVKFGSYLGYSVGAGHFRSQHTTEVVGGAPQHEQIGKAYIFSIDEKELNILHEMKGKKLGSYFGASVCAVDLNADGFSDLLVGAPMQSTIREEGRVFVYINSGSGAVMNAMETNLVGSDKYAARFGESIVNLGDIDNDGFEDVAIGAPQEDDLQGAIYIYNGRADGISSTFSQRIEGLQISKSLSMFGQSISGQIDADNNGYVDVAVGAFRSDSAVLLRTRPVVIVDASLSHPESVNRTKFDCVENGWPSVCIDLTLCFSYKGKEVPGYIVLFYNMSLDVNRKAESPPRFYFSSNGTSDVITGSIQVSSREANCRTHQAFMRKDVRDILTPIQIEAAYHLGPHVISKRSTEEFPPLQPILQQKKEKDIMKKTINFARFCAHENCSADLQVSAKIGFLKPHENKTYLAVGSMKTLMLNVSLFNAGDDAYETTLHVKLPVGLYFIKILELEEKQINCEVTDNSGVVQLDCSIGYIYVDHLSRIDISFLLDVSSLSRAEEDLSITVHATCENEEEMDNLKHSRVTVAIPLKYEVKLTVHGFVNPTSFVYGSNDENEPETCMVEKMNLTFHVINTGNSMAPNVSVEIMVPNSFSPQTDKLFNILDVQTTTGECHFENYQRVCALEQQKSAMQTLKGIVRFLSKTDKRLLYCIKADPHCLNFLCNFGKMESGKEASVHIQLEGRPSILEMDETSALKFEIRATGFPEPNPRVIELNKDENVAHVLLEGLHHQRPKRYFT
T1 sequence (P26010 20-723 limits assumed): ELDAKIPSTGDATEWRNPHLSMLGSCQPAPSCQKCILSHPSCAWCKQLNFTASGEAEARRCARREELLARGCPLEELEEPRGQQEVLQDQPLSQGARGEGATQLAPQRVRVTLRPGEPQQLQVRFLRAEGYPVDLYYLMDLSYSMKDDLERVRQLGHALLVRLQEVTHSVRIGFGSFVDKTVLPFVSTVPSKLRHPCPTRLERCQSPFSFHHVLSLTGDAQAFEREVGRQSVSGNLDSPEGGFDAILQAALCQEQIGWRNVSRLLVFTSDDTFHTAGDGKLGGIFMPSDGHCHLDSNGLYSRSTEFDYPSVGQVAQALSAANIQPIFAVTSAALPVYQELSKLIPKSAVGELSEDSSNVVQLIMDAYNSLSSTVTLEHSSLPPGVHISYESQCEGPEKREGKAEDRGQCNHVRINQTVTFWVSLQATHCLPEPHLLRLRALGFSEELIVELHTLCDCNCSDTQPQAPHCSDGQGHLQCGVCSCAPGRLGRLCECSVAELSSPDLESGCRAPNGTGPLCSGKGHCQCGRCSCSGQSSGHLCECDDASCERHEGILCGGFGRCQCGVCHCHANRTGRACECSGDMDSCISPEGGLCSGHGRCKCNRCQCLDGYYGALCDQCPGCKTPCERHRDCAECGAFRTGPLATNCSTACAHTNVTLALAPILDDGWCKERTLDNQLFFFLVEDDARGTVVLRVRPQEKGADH
α4β7, sequence (P13612 34-1032): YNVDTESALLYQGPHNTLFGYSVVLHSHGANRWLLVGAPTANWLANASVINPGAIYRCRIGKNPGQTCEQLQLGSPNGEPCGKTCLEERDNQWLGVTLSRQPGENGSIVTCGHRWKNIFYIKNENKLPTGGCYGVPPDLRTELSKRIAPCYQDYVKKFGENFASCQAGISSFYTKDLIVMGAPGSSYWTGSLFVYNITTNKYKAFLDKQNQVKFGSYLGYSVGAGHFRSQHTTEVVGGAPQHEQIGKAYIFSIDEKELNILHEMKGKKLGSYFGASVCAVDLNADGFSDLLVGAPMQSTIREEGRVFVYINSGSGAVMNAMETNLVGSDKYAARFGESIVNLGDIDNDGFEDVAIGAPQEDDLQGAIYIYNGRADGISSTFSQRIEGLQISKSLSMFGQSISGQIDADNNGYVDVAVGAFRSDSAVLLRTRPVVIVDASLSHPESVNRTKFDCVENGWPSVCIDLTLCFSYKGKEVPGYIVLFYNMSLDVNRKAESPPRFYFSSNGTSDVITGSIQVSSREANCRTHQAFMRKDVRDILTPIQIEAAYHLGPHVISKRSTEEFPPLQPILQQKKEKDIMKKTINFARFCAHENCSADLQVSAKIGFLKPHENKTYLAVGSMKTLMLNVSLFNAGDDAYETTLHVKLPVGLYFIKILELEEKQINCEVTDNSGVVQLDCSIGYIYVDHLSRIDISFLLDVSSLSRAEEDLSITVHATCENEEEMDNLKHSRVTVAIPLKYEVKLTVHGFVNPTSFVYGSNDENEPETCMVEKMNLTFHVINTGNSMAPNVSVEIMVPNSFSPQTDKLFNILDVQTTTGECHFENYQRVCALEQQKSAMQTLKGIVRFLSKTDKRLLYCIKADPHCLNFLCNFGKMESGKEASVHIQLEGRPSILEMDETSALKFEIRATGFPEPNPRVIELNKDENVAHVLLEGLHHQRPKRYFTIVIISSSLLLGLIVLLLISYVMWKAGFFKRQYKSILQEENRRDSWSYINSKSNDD
α4β7, sequence (P26010 20-798): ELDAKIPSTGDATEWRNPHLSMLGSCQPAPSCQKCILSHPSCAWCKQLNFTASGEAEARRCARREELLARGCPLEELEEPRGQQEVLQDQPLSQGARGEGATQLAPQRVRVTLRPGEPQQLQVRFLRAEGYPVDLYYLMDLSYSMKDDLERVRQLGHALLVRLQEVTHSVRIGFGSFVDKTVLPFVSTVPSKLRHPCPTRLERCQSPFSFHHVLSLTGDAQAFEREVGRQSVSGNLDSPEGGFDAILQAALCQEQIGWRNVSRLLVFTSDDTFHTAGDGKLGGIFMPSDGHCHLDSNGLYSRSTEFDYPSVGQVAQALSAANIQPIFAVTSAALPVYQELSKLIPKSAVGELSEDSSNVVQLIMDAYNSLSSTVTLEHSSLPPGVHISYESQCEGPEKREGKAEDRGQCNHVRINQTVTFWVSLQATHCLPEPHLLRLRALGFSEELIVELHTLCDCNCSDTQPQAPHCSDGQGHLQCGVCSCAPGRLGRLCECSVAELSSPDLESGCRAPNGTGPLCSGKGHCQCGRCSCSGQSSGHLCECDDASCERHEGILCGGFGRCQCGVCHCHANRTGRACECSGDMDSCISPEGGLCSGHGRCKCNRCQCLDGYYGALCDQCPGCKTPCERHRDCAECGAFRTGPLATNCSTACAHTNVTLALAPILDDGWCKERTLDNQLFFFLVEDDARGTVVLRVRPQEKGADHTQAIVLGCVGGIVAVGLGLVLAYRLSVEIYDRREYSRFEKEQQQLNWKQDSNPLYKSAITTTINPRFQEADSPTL

| SMILES | pIC50 (rh integrin α4β7) | pIC50 (α4β7) | also measured |
| --- | --- | --- | --- |
| CC(=O)N[C@@H]1C(=O)N(C)[C@@H](CCCNC(=N)N)C(=O)N[C@@H](CO)C(=O)N[C@@H](CC(=O)O)C(=O)N[C@@H]([C@@H](C)O)C(=O)N[C@@H](CC(C)C)C(=O)N[C@H](C(=O)N[C@@H](Cc2cccc3ccccc23)C(=O)N[C@H](CCC(=O)O)C(=O)N[C@H](CCCCN)C(N)=O)C(C)(C)SSC1(C)C [compound 8] (Ac-[Pen][NMeR]SDTL[Pen][1Nal][dE][dK]-NH2; disulfide 1-7) | 7.30 to 7.60 |  |  |
| CC(=O)N[C@@H]1C(=O)N(C)[C@@H](CCCNC(=N)N)C(=O)N[C@@H](CO)C(=O)N[C@@H](CC(=O)O)C(=O)N[C@@H]([C@@H](C)O)C(=O)N[C@@H](CC(C)C)C(=O)N[C@H](C(=O)N[C@H](Cc2cccc3ccccc23)C(=O)N[C@@H](CCC(=O)O)C(=O)N[C@H](CCCCN)C(N)=O)C(C)(C)SSC1(C)C [compound 10] (Ac-[Pen][NMeR]SDTL[Pen][d1Nal]E[dK]-NH2; disulfide 1-7) | 7.60 to 8.00 |  |  |
| CC(=O)N[C@@H]1C(=O)N(C)[C@@H](CCCNC(=N)N)C(=O)N[C@@H](CO)C(=O)N[C@@H](CC(=O)O)C(=O)N[C@@H]([C@@H](C)O)C(=O)N[C@@H](CC(C)C)C(=O)N[C@H](C(=O)N[C@H](Cc2ccc3ccccc3c2)C(=O)N[C@@H](CCC(=O)O)C(=O)N[C@H](CCCCN)C(N)=O)C(C)(C)SSC1(C)C [compound 11] (Ac-[Pen][NMeR]SDTL[Pen][d2Nal]E[dK]-NH2; disulfide 1-7) | 7.30 to 7.60 |  |  |
| CC(=O)N[C@@H]1C(=O)N(C)[C@@H](CCCNC(=N)N)C(=O)N[C@@H](CO)C(=O)N[C@@H](CC(=O)O)C(=O)N[C@@H]([C@@H](C)O)C(=O)N[C@@H](CC(C)C)C(=O)N[C@H](C(=O)N[C@@H](Cc2cccc3ccccc23)C(=O)N[C@H](CCC(=O)O)C(=O)N(C)[C@H](CCCCN)C(N)=O)C(C)(C)SSC1(C)C [compound 12] (Ac-[Pen][NMeR]SDTL[Pen][1Nal][dE][dNMeK]-NH2; disulfide 1-7) | 7.30 to 7.60 |  |  |
| CC(=O)N[C@@H]1C(=O)N(C)[C@@H](CCCNC(=N)N)C(=O)N[C@@H](CO)C(=O)N[C@@H](CC(=O)O)C(=O)N[C@@H]([C@@H](C)O)C(=O)N[C@@H](CC(C)C)C(=O)N[C@H](C(=O)N[C@@H](CCc2ccccc2)C(=O)N[C@H](CCC(=O)O)C(=O)N[C@H](CCCCN)C(N)=O)C(C)(C)SSC1(C)C [compound 14] (Ac-[Pen][NMeR]SDTL[Pen][hPhe][dE][dK]-NH2; disulfide 1-7) | 7.30 to 7.60 |  |  |
| CC(=O)N[C@@H]1C(=O)N(C)[C@@H](CCCNC(=N)N)C(=O)N[C@@H](CO)C(=O)N[C@@H](CC(=O)O)C(=O)N[C@@H]([C@@H](C)O)C(=O)N[C@@H](CC(C)C)C(=O)N[C@H](C(=O)N[C@@H](Cc2ccc3ccccc3c2)C(=O)N[C@@H](CCC(=O)O)C(=O)N(C)[C@H](CCCCN)C(N)=O)C(C)(C)SSC1(C)C [compound 15] (Ac-[Pen][NMeR]SDTL[Pen][2Nal]E[dNMeK]-NH2; disulfide 1-7) | > 8.00 |  |  |
| CC(=O)N[C@@H]1C(=O)N(C)[C@@H](CCCNC(=N)N)C(=O)N[C@@H](CO)C(=O)N[C@@H](CC(=O)O)C(=O)N[C@@H]([C@@H](C)O)C(=O)N[C@@H](CC(C)C)C(=O)N[C@H](C(=O)N[C@@H](Cc2ccc(Cl)cc2Cl)C(=O)N[C@@H](CCC(=O)O)C(=O)N[C@H](CCCCN)C(N)=O)C(C)(C)SSC1(C)C [compound 16] (Ac-[Pen][NMeR]SDTL[Pen][Phe(2,4-Cl2)]E[dK]-NH2; disulfide 1-7) | 7.60 to 8.00 |  |  |
| CC(=O)N[C@@H]1C(=O)N(C)[C@@H](CCCNC(=N)N)C(=O)N[C@@H](CO)C(=O)N[C@@H](CC(=O)O)C(=O)N[C@@H]([C@@H](C)O)C(=O)N[C@@H](CC(C)C)C(=O)N[C@H](C(=O)N[C@@H](Cc2cccc(C(N)=O)c2)C(=O)N[C@H](CCC(=O)O)C(=O)N[C@H](CCCCNC(=O)COCC(=O)NCCCC[C@@H](NC(=O)[C@@H](CCC(=O)O)NC(=O)[C@H](Cc2cccc(C(N)=O)c2)NC(=O)[C@H]2NC(=O)[C@H](CC(C)C)NC(=O)[C@H]([C@@H](C)O)NC(=O)[C@H](CC(=O)O)NC(=O)[C@H](CO)NC(=O)[C@H](CCCNC(=N)N)N(C)C(=O)[C@@H](NC(C)=O)C(C)(C)SSC2(C)C)C(N)=O)C(N)=O)C(C)(C)SSC1(C)C [compound 99] (I: Ac-[Pen][NMeR]SDTL[Pen][Phe(3-CONH2)][dE][dK]-NH2 / II: Ac-[Pen][NMeR]SDTL[Pen][Phe(3-CONH2)][dE][dK]-NH2; disulfide I:1-I:7, II:1-II:7; linker I:10-II:10 via Diglycolyl) |  | 6.30 to 7.00 | half-life at 22 μM ([1]; simulated intestinal fluid (SIF) with porcine pancreatin, > means experiment was stopped at that time and half life was not reached, read-out: Stabilty SIF t1/2): > 3 h |
| CC(=O)N[C@@H]1C(=O)N(C)[C@@H](CCCNC(=N)N)C(=O)N[C@@H](CO)C(=O)N[C@@H](CC(=O)O)C(=O)N[C@@H]([C@@H](C)O)C(=O)N[C@@H](CC(C)C)C(=O)N[C@H](C(=O)N[C@@H](Cc2c[nH]c3ccccc23)C(=O)N[C@H](Cc2c[nH]cn2)C(=O)N[C@H](CCCCNC(=O)COCC(=O)NCCCC[C@@H](NC(=O)[C@@H](Cc2c[nH]cn2)NC(=O)[C@H](Cc2c[nH]c3ccccc23)NC(=O)[C@H]2NC(=O)[C@H](CC(C)C)NC(=O)[C@H]([C@@H](C)O)NC(=O)[C@H](CC(=O)O)NC(=O)[C@H](CO)NC(=O)[C@H](CCCNC(=N)N)N(C)C(=O)[C@@H](NC(C)=O)C(C)(C)SSC2(C)C)C(N)=O)C(N)=O)C(C)(C)SSC1(C)C [compound 104] (I: Ac-[Pen][NMeR]SDTL[Pen]W[dH][dK]-NH2 / II: Ac-[Pen][NMeR]SDTL[Pen]W[dH][dK]-NH2; disulfide I:1-I:7, II:1-II:7; linker I:10-II:10 via Diglycolyl) |  | 6.30 to 7.00 | half-life at 22 μM [1, 2]: 0.583 h |
| CC(=O)N[C@@H]1C(=O)N(C)[C@@H](CCCNC(=N)N)C(=O)N[C@@H](CO)C(=O)N[C@@H](CC(=O)O)C(=O)N[C@@H]([C@@H](C)O)C(=O)N[C@@H](CC(C)C)C(=O)N[C@H](C(=O)N[C@@H](Cc2ccc(F)cc2)C(=O)N[C@H](CCC(=O)O)C(=O)N[C@H](CCCCNC(=O)COCC(=O)NCCCC[C@@H](NC(=O)[C@@H](CCC(=O)O)NC(=O)[C@H](Cc2ccc(F)cc2)NC(=O)[C@H]2NC(=O)[C@H](CC(C)C)NC(=O)[C@H]([C@@H](C)O)NC(=O)[C@H](CC(=O)O)NC(=O)[C@H](CO)NC(=O)[C@H](CCCNC(=N)N)N(C)C(=O)[C@@H](NC(C)=O)C(C)(C)SSC2(C)C)C(N)=O)C(N)=O)C(C)(C)SSC1(C)C [compound 107] (I: Ac-[Pen][NMeR]SDTL[Pen][Phe(4-F)][dE][dK]-NH2 / II: Ac-[Pen][NMeR]SDTL[Pen][Phe(4-F)][dE][dK]-NH2; disulfide I:1-I:7, II:1-II:7; linker I:10-II:10 via Diglycolyl) |  | 7.30 to 7.60 | half-life at 22 μM [1, 2]: > 3 h |
| CC(=O)N[C@@H]1C(=O)N(C)[C@@H](CCCNC(=N)N)C(=O)N[C@@H](CO)C(=O)N[C@@H](CC(=O)O)C(=O)N[C@@H]([C@@H](C)O)C(=O)N[C@@H](CC(C)C)C(=O)N[C@H](C(=O)N[C@@H](Cc2c[nH]c3ccccc23)C(=O)O)C(C)(C)SSC1(C)C [compound 127] (Ac-[Pen][NMeR]SDTL[Pen]W-OH; disulfide 1-7) |  | 6.30 to 7.00 | half-life at 22 μM ([1]; simulated intestinal fluid (SIF) with 1% porcine pancreatin, alone or in parentheses after >360, read-out: Stabilty SIF t1/2, in hr (converted)): 35 h |
| CC(=O)N[C@@H]1C(=O)N(C)[C@@H](CCCNC(=N)N)C(=O)N[C@@H](CO)C(=O)N[C@@H](CC(=O)O)C(=O)N[C@@H]([C@@H](C)O)C(=O)N[C@@H](CC(C)C)C(=O)N[C@H](C(=O)N[C@@H](Cc2c[nH]c3ccccc23)C(=O)N[C@@H](CCC(=O)O)C(=O)O)C(C)(C)SSC1(C)C [compound 128] (Ac-[Pen][NMeR]SDTL[Pen]WE-OH; disulfide 1-7) |  | 7.00 to 7.30 | half-life at 22 μM [1, 2]: 3 h |
